Assay results published in ChEMBL document CHEMBL1148995, “Antitumor agents from bohemic acid complex, VI. Schaunardimycin” (J Nat Prod, 1984).

Columns and labels:
L1210 [1] = experiment: Antitumor activity against mouse L1210 cells implanted in CDF1 mouse assessed as median survival time at 0.2 mg/kg, ip single dose on day 1; assay type: functional; settings: route intraperitoneal
Mus musculus [2] = experiment: Toxicity in mouse L1210 cells implanted CDF1 mouse assessed as average weight gain at 3.2 mg/kg, ip single dose on day 1; assay type: organism-based; parameters: dose 3.2 mg/kg, route intraperitoneal; settings: in vivo
Mus musculus [3] = experiment: Toxicity in mouse L1210 cells implanted CDF1 mouse assessed as average weight gain at 0.4 mg/kg, ip single dose on day 1; assay type: organism-based; parameters: dose 0.4 mg/kg, route intraperitoneal; settings: in vivo
L1210 [4] = experiment: Antitumor activity against mouse L1210 cells implanted in CDF1 mouse at 25.6 mg/kg, ip single dose on day 1 relative to control; assay type: functional; settings: route intraperitoneal
Mus musculus [5] = experiment: Toxicity in mouse L1210 cells implanted CDF1 mouse assessed as survivors on day 5 at 0.2 mg/kg, ip qd for 1 to 5 days; assay type: organism-based; parameters: dose 0.2 mg/kg, route intraperitoneal; settings: in vivo
L1210 [6] = experiment: Antitumor activity against mouse L1210 cells implanted in CDF1 mouse assessed as median survival time at 0.4 mg/kg, ip single dose on day 1; assay type: functional; settings: route intraperitoneal
Mus musculus [7] = experiment: Toxicity in mouse L1210 cells implanted CDF1 mouse assessed as average weight gain at 25.6 mg/kg, ip single dose on day 1; assay type: organism-based; parameters: dose 25.6 mg/kg, route intraperitoneal; settings: in vivo
L1210 [8] = experiment: Antitumor activity against mouse L1210 cells implanted in CDF1 mouse assessed as median survival time at 12.8 mg/kg, ip single dose on day 1; assay type: functional; settings: route intraperitoneal
Mus musculus [9] = experiment: Toxicity in mouse L1210 cells implanted CDF1 mouse assessed as average weight gain at 1.6 mg/kg, ip qd for 1 to 5 days; assay type: organism-based; parameters: dose 1.6 mg/kg, route intraperitoneal; settings: in vivo
L1210 [10] = experiment: Antitumor activity against mouse L1210 cells implanted in CDF1 mouse at 6.4 mg/kg, ip single dose on day 1 relative to control; assay type: functional; settings: route intraperitoneal
L1210 [11] = experiment: Antitumor activity against mouse L1210 cells implanted in CDF1 mouse assessed as median survival time at 3.2 mg/kg, ip qd for 1 to 5 days; assay type: functional; settings: route intraperitoneal
L1210 [12] = experiment: Antitumor activity against mouse L1210 cells implanted in CDF1 mouse at 1.6 mg/kg, ip single dose on day 1 relative to control; assay type: functional; settings: route intraperitoneal
L1210 [13] = experiment: Antitumor activity against mouse L1210 cells implanted in CDF1 mouse assessed as median survival time at 0.4 mg/kg, ip qd for 1 to 5 days; assay type: functional; settings: route intraperitoneal
Mus musculus [14] = experiment: Toxicity in mouse L1210 cells implanted CDF1 mouse assessed as average weight gain at 1.6 mg/kg, ip single dose on day 1; assay type: organism-based; parameters: dose 1.6 mg/kg, route intraperitoneal; settings: in vivo
Mus musculus [15] = experiment: Toxicity in mouse L1210 cells implanted CDF1 mouse assessed as survivors on day 5 at 0.4 mg/kg, ip single dose on day 1; assay type: organism-based; parameters: dose 0.4 mg/kg, route intraperitoneal; settings: in vivo
L1210 [16] = experiment: Antitumor activity against mouse L1210 cells implanted in CDF1 mouse at 0.2 mg/kg, ip qd for 1 to 5 days relative to control; assay type: functional; settings: route intraperitoneal
Mus musculus [17] = experiment: Toxicity in mouse L1210 cells implanted CDF1 mouse assessed as survivors on day 5 at 6.4 mg/kg, ip qd for 1 to 5 days; assay type: organism-based; parameters: dose 6.4 mg/kg, route intraperitoneal; settings: in vivo
L1210 [18] = experiment: Antitumor activity against mouse L1210 cells implanted in CDF1 mouse assessed as median survival time at 0.8 mg/kg, ip qd for 1 to 5 days; assay type: functional; settings: route intraperitoneal
L1210 [19] = experiment: Antitumor activity against mouse L1210 cells implanted in CDF1 mouse at 12.8 mg/kg, ip single dose on day 1 relative to control; assay type: functional; settings: route intraperitoneal
Mus musculus [20] = experiment: Toxicity in mouse L1210 cells implanted CDF1 mouse assessed as survivors on day 5 at 12.8 mg/kg, ip single dose on day 1; assay type: organism-based; parameters: dose 12.8 mg/kg, route intraperitoneal; settings: in vivo
Mus musculus [21] = experiment: Toxicity in mouse L1210 cells implanted CDF1 mouse assessed as average weight gain at 6.4 mg/kg, ip single dose on day 1; assay type: organism-based; parameters: dose 6.4 mg/kg, route intraperitoneal; settings: in vivo
Mus musculus [22] = experiment: Toxicity in mouse L1210 cells implanted CDF1 mouse assessed as survivors on day 5 at 0.8 mg/kg, ip single dose on day 1; assay type: organism-based; parameters: dose 0.8 mg/kg, route intraperitoneal; settings: in vivo
Mus musculus [23] = experiment: Toxicity in mouse L1210 cells implanted CDF1 mouse assessed as survivors on day 5 at 1.6 mg/kg, ip single dose on day 1; assay type: organism-based; parameters: dose 1.6 mg/kg, route intraperitoneal; settings: in vivo
L1210 [24] = experiment: Antitumor activity against mouse L1210 cells implanted in CDF1 mouse assessed as median survival time at 6.4 mg/kg, ip qd for 1 to 5 days; assay type: functional; settings: route intraperitoneal
L1210 [25] = experiment: Antitumor activity against mouse L1210 cells implanted in CDF1 mouse assessed as median survival time at 25.6 mg/kg, ip single dose on day 1; assay type: functional; settings: route intraperitoneal
Mus musculus [26] = experiment: Toxicity in mouse L1210 cells implanted CDF1 mouse assessed as average weight gain at 0.2 mg/kg, ip single dose on day 1; assay type: organism-based; parameters: dose 0.2 mg/kg, route intraperitoneal; settings: in vivo
Mus musculus [27] = experiment: Toxicity in mouse L1210 cells implanted CDF1 mouse assessed as survivors on day 5 at 0.2 mg/kg, ip single dose on day 1; assay type: organism-based; parameters: dose 0.2 mg/kg, route intraperitoneal; settings: in vivo
L1210 [28] = experiment: Antitumor activity against mouse L1210 cells implanted in CDF1 mouse at 3.2 mg/kg, ip qd for 1 to 5 days relative to control; assay type: functional; settings: route intraperitoneal

## CC[C@@]1(O)C[C@H](O[C@H]2C[C@H](NC)[C@H](O[C@H]3C[C@H](O)[C@H](O)[C@H](C)O3)[C@H](C)O2)c2c(cc3c(c2O)C(=O)c2c(O)ccc(O)c2C3=O)[C@H]1C(=O)OC [SCHAUNARDIMYCIN]
L1210 [1]
  MST: 6 days
Mus musculus [2]
  Activity: 3.2 g
Mus musculus [3]
  weight gain: 2.8 g
L1210 [4]
  T/C: 133%
Mus musculus [5]
  Activity: Active
L1210 [6]
  MST: 6 days
Mus musculus [7]
  Activity: -1.4 g
L1210 [8]
  MST: 8 days
Mus musculus [9]
  weight gain: 3 g
L1210 [10]
  T/C: 117%
L1210 [11]
  MST: 8 days
L1210 [12]
  T/C: 108%
L1210 [13]
  MST: 7 days
Mus musculus [14]
  weight gain: 2.7 g
Mus musculus [15]
  Activity: Active
L1210 [16]
  T/C: 117%
Mus musculus [17]
  Activity: Active
L1210 [18]
  MST: 7 days
L1210 [19]
  T/C: 133%
Mus musculus [20]
  Activity: Active
Mus musculus [21]
  Activity: 2.5 g
Mus musculus [22]
  Activity: Active
Mus musculus [23]
  Activity: Active
L1210 [24]
  MST: 8 days
L1210 [25]
  MST: 8 days
Mus musculus [26]
  weight gain: 2.5 g
Mus musculus [27]
  Activity: Active
L1210 [28]
  T/C: 133%
